Measurements from the supplement of paper PMC10307832.

Experiments:
Assay in all cases: relative viability (nuclei count vs DMSO), 5 days (fraction); higher = more cells survive
HCC-15 = tested on: HCC-15
Procedure, shortened: (§1)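 Lung cancer cell lines in 1536-well plates got either a single drug or a fixed anchor-drug dose together with five library-drug doses (not always all listed) in √10 steps, by pin tool, on the day after seeding. Nuclei were counted after 5 days, and relative viability is the treated-to-vehicle ratio of nuclei counts. Values are medians of duplicate plates.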

SK-MES-1 = tested on: SK-MES-1
Procedure, shortened: as §1

NCI-H1755 = tested on: NCI-H1755
Procedure, shortened: as §1

NCI-H2347 = tested on: NCI-H2347
Procedure, shortened: as §1

NCI-H2009 = tested on: NCI-H2009
Procedure, shortened: as §1

HARA = tested on: HARA
Procedure, shortened: as §1

COR-L 105 = tested on: COR-L 105
Procedure, shortened: as §1

NCI-H2228 = tested on: NCI-H2228
Procedure, shortened: as §1

COR-L23 = tested on: COR-L23
Procedure, shortened: as §1

NCI-H1793 = tested on: NCI-H1793
Procedure, shortened: as §1

NCI-H1355 = tested on: NCI-H1355
Procedure, shortened: as §1

NCI-H1993 = tested on: NCI-H1993
Procedure, shortened: as §1

EKVX = tested on: EKVX
Procedure, shortened: as §1

PC-14 = tested on: PC-14
Procedure, shortened: as §1

UMC-11 = tested on: UMC-11
Procedure, shortened: as §1

NCI-H1734 = tested on: NCI-H1734
Procedure, shortened: as §1

NCI-H358 = tested on: NCI-H358
Procedure, shortened: as §1

HOP-62 = tested on: HOP-62
Procedure, shortened: as §1

NCI-H1395 = tested on: NCI-H1395
Procedure, shortened: as §1

NCI-H838 = tested on: NCI-H838
Procedure, shortened: as §1

NCI-H647 = tested on: NCI-H647
Procedure, shortened: as §1

Structure (SMILES): C=C1C(=O)O[C@@H](CCCCCCCC)[C@@H]1C(=O)O [C-75] + C[C@]1(O)C[C@@H](c2nc(-c3ccc4ccc(-c5ccccc5)nc4c3)c3c(N)nccn32)C1 [Linsitinib] (partner 1 µM)
- relative viability (HCC-15; first compound 0.08 µM): 0.926
- relative viability (HCC-15; first compound 0.253 µM): 0.978
- relative viability (HCC-15; first compound 0.8 µM): 0.924
- relative viability (HCC-15; first compound 2.53 µM): 0.847
- relative viability (HCC-15; first compound 8 µM): 0.902
- relative viability (SK-MES-1; first compound 0.08 µM): 1.1
- relative viability (SK-MES-1; first compound 0.253 µM): 0.935
- relative viability (SK-MES-1; first compound 0.8 µM): 1.02
- relative viability (SK-MES-1; first compound 8 µM): 1.05
- relative viability (NCI-H1755; first compound 0.08 µM): 0.946
- relative viability (NCI-H1755; first compound 0.253 µM): 0.887
- relative viability (NCI-H1755; first compound 0.8 µM): 0.98
- relative viability (NCI-H1755; first compound 2.53 µM): 0.775
- relative viability (NCI-H1755; first compound 8 µM): 1.01
- relative viability (NCI-H2347; first compound 0.08 µM): 1.01
- relative viability (NCI-H2347; first compound 0.253 µM): 0.959
- relative viability (NCI-H2347; first compound 0.8 µM): 0.598
- relative viability (NCI-H2347; first compound 2.53 µM): 0.88
- relative viability (NCI-H2347; first compound 8 µM): 1.07
- relative viability (NCI-H2009; first compound 0.08 µM): 1.19
- relative viability (NCI-H2009; first compound 0.253 µM): 1.09
- relative viability (NCI-H2009; first compound 0.8 µM): 1.11
- relative viability (NCI-H2009; first compound 2.53 µM): 1.02
- relative viability (NCI-H2009; first compound 8 µM): 0.997
- relative viability (HARA; first compound 0.08 µM): 0.861
- relative viability (HARA; first compound 0.253 µM): 0.954
- relative viability (HARA; first compound 0.8 µM): 0.915
- relative viability (HARA; first compound 8 µM): 0.97
- relative viability (COR-L 105; first compound 0.08 µM): 0.993
- relative viability (COR-L 105; first compound 0.253 µM): 0.928
- relative viability (COR-L 105; first compound 0.8 µM): 0.89
- relative viability (COR-L 105; first compound 2.53 µM): 0.946
- relative viability (COR-L 105; first compound 8 µM): 0.886
- relative viability (NCI-H2228; first compound 0.08 µM): 1.03
- relative viability (NCI-H2228; first compound 0.253 µM): 1.04
- relative viability (NCI-H2228; first compound 0.8 µM): 0.543
- relative viability (NCI-H2228; first compound 2.53 µM): 0.594
- relative viability (NCI-H2228; first compound 8 µM): 0.66
- relative viability (COR-L23; first compound 0.08 µM): 0.935
- relative viability (COR-L23; first compound 0.253 µM): 0.907
- relative viability (COR-L23; first compound 0.8 µM): 0.856
- relative viability (COR-L23; first compound 2.53 µM): 0.632
- relative viability (COR-L23; first compound 8 µM): 0.909
- relative viability (NCI-H1793; first compound 0.08 µM): 0.775
- relative viability (NCI-H1793; first compound 0.253 µM): 1.18
- relative viability (NCI-H1793; first compound 0.8 µM): 0.698
- relative viability (NCI-H1793; first compound 2.53 µM): 0.658
- relative viability (NCI-H1793; first compound 8 µM): 0.942
- relative viability (NCI-H1355; first compound 0.08 µM): 0.849
- relative viability (NCI-H1355; first compound 0.253 µM): 0.803
- relative viability (NCI-H1355; first compound 0.8 µM): 0.806
- relative viability (NCI-H1355; first compound 2.53 µM): 0.805
- relative viability (NCI-H1355; first compound 8 µM): 0.825
- relative viability (NCI-H1993; first compound 0.08 µM): 0.705
- relative viability (NCI-H1993; first compound 0.253 µM): 0.773
- relative viability (NCI-H1993; first compound 0.8 µM): 0.751
- relative viability (NCI-H1993; first compound 2.53 µM): 0.744
- relative viability (NCI-H1993; first compound 8 µM): 0.763
- relative viability (EKVX; first compound 0.08 µM): 1.01
- relative viability (EKVX; first compound 0.253 µM): 1.05
- relative viability (EKVX; first compound 0.8 µM): 0.906
- relative viability (EKVX; first compound 2.53 µM): 0.96
- relative viability (EKVX; first compound 8 µM): 0.908
- relative viability (PC-14; first compound 0.08 µM): 0.956
- relative viability (PC-14; first compound 0.253 µM): 0.818
- relative viability (PC-14; first compound 0.8 µM): 1.03
- relative viability (PC-14; first compound 2.53 µM): 0.778
- relative viability (PC-14; first compound 8 µM): 0.939
- relative viability (UMC-11; first compound 0.08 µM): 0.91
- relative viability (UMC-11; first compound 0.253 µM): 1.09
- relative viability (UMC-11; first compound 0.8 µM): 1.01
- relative viability (UMC-11; first compound 2.53 µM): 0.821
- relative viability (UMC-11; first compound 8 µM): 0.891
- relative viability (NCI-H1734; first compound 0.08 µM): 0.876
- relative viability (NCI-H1734; first compound 0.253 µM): 0.813
- relative viability (NCI-H1734; first compound 0.8 µM): 0.804
- relative viability (NCI-H1734; first compound 2.53 µM): 0.622
- relative viability (NCI-H1734; first compound 8 µM): 0.732
- relative viability (NCI-H358; first compound 0.08 µM): 0.734
- relative viability (NCI-H358; first compound 0.253 µM): 0.823
- relative viability (NCI-H358; first compound 0.8 µM): 0.7
- relative viability (NCI-H358; first compound 2.53 µM): 0.602
- relative viability (NCI-H358; first compound 8 µM): 0.737
- relative viability (HOP-62; first compound 0.08 µM): 0.944
- relative viability (HOP-62; first compound 0.253 µM): 0.894
- relative viability (HOP-62; first compound 0.8 µM): 0.841
- relative viability (HOP-62; first compound 2.53 µM): 0.843
- relative viability (HOP-62; first compound 8 µM): 0.875
- relative viability (NCI-H1395; first compound 0.08 µM): 1.11
- relative viability (NCI-H1395; first compound 0.253 µM): 1.05
- relative viability (NCI-H1395; first compound 0.8 µM): 1.12
- relative viability (NCI-H1395; first compound 2.53 µM): 1.11
- relative viability (NCI-H1395; first compound 8 µM): 1.25
- relative viability (NCI-H838; first compound 0.08 µM): 0.935
- relative viability (NCI-H838; first compound 0.253 µM): 0.706
- relative viability (NCI-H838; first compound 0.8 µM): 1.01
- relative viability (NCI-H838; first compound 2.53 µM): 0.943
- relative viability (NCI-H838; first compound 8 µM): 0.836
- relative viability (NCI-H647; first compound 0.08 µM): 1.18
- relative viability (NCI-H647; first compound 0.253 µM): 1.31
- relative viability (NCI-H647; first compound 2.53 µM): 0.903
- relative viability (NCI-H647; first compound 8 µM): 0.823
